Measured values as given in patent publication US7585839B2, “Medical uses of intercellular communication facilitating compounds” (Zealand Pharma A/S, priority 2001, dated 2009).

Tests used:
[1] = tested on: phosphoinositol turnover in neonatal rat cardiomyocytes; experiment: Phosphoinositol turnover in primary cardiomyocyte cultures; assay type: cell-based; conditions: 100 nM + noradrenaline 300 nM
Procedure: Neonatal Wistar rats (1-2 days old) are used. Hank's calcium- and magnesium-free balanced salt solution, buffered with 10 mM HEPES is used for washing during cell separation procedures. The hearts are excised, the ventricles isolated and the tissue cut into small pieces. The myocardial cells are isolated by stepwise enzymatic degradation with collagenase 0.05%, as described by ^[35]. After repeated rounds of centrifugation and washing, the precipitated cells are resuspended in culture medium M199 with Earle's salt, 10% NCS, penicillin (75 U/mL), and streptomycin (75 U/mL) and pre-plated in a Petri dish for 90 minutes. The non-adherent cells are collected in the culture medium and plated in multidishes at 2.5*10^5 cells/well. The cultures are kept in a water-saturated CO2-incubator at 37° C. The cardiomyocyte cultures are used for analyses after 6-7 days.
Cardiomyocyte cultures are incubated for 48 hours in culture medium containing 4 μCi/mL myo-[2-^3H]inositol to label the inositol phospholipids. On the day of analysis the medium is replaced by a buffer solution containing lithium and incubated at 37° C., as described by Meier et al.^[36]. After at least five minutes this buffer is replaced by the same volume of buffer containing test compound and incubated for exactly 20 minutes. The reaction is stopped by rapid replacement of the buffer by ice cold 4% v/v perchloric acid (PCA) and incubation for at least 20 minutes at 0° C. The PCA-extract is neutralised and the [^3H]inositol phosphates are separated by anion-exchange chromatography using Amprep™ columns containing 100 mg SAX Quaternary amine. The [^3H]inositol mono-phosphates are eluted and radioactivity in the fraction measured by liquid scintillation counting.
Before adding test substances to the cultures, the cells are depleted of glucose and oxygen by incubating them in a N2-atmosphere in glucose-free lithium-buffer for 10 minutes at 37° C. Control cells are incubated likewise only at normal atmospheric conditions and in a buffer containing glucose.

[2] = tested on: calcium-induced arrythmias; experiment: Calcium-induced arrhythmia model in mice (CaCl2-induced 2nd degree AV-block); assay type: in vivo; conditions: mouse, in vivo
Procedure: The antiarrhythmic effects of compounds of this invention were tested in an in vivo model of calcium-induced arrythmias according to the model of Lynch et al.^[37]. […]. Commercial solutions of hypnorm and midazolam were diluted 1:1 in distilled water and one part diluted Hypnorm® is mixed with one part diluted midazolam.
The anaesthesia was induced by s.c. administration in a dose of 0.05-0.075 μl/10 gram mouse. An i.v. cannula was inserted into the tail vein. The lead II ECG signal was recorded continuously by positioning of a stainless steel ECG electrodes on the right forelimb and on the left hind limb. The ground electrode was placed on the right hind limb. The signal was amplified (×5.000-10.000) and filtered (0.1-150 Hz) via a Hugo Sachs Electronic model 689 ECG module. The analogue signal was digitised via a 12 bit data acquisition board (Data Translation model DT321) and sampled at 1000 Hz using the Notocord HEM 3.1 software for Windows NT. After a 10-min equilibration period, the test sample of drug was injected into the tail vein. Mice pre-treated with vehicle were tested as a measure of the control level in untreated animals. The injection volume was 100 μl in all experiments. Infusion of CaCl2 (30 mg/ml, 0.1 ml/min≈100 mg/kg/min (calciumchlorid-2-hydrat, Riedel-de Haën, Germany)) was started 3 min after i.v. administration of drug or vehicle.
The time lag to onset of 2nd degree AV-block was determined as the time from the start of CaCl2 infusion until the first arrhythmic event occured. An event of 2nd degree AV-block was defined as intermittent failure of the AV conduction characterised by a P-wave without the concomitant QRS complex.
Responses were expressed relative to the time until 2nd degree AV-block occurred in vehicle treated mice.

[3] = tested on: human osteoblastic cells; experiment: Intercellular calcium waves after mechanical stimulation, human osteoblastic cells; assay type: cell-based
Procedure: (§1) Human osteblast cells (hOB): Cells were isolated from human bone marrow obtained by puncture of the posterior iliac spine of healthy volunteers (aged 20-36): 10-15 ml marrow material was collected in 15 ml PBS+Ca,Mg (Life Technologies, Cat.No. 14040) with 100 U/ml Heparin (Sigma, Cat.No. H-3149). The mononuclear fraction of the marrow was isolated on a Lymphoprep gradient (Nycomed Pharma, Cat.No. 1001967), by centrifugation at 2200 rpm for 30 min. After harvesting, the mononuclear fraction was washed once with culture medium and centrifuged at 1800 rpm for 10 min. Subsequently cells were counted and plated in culture medium at 8×10^6 cells/100 mm dish. hOB medium (all reagents obtained from Life Technologies): MEM w/o Phenol Red w/Glutamax (Cat.No. 041-93013) supplemented with 10% heat inactivated fetal calf serum (Cat.No. 10106) and 0.1% Penicillin/Streptomycin (Cat.No. 15140). Medium was changed the following day and the cells were cultured at 37° C. in 5% CO2 with medium change every 7 days. After 3-4 weeks of culture the cells had reached 70% confluence. The medium was then supplemented with 100 nM Dexamethasone (Sigma, Cat.No. D-4902) for 7 days. Cells were then plated for video imaging experiments: a 25 mm #1 glass coverslip was placed in a 35 mm dish (or each well of a 6-well multidish), cells were plated at 2.5×10^5 cells/coverslip and cultured for 2-3 days before use. […]

[4] = tested on: human osteoblast; experiment: Lucifer Yellow microinjection dye transfer, human osteoblasts; assay type: cell-based; conditions: 48 hours hypoxia 3-6% O2; 10 minutes incubation; 7 cells before
Procedure: as §1

[5] = tested on: phosphoinositol turnover in neonatal rat cardiomyocytes; conditions: conference abstract, cited from earlier work
[6] = tested on: human osteoblast; conditions: human osteoblast cultures and rat osteosarcoma cell lines; conference abstract; cited from earlier work

Substance: Ac-D-Tyr-D-Pro-D-4Hyp-Gly-D-Ala-Gly-NH2 [Compound 2]
- increase in phospho-inositol turnover above the increase effected by noradrenaline alone ([1]; anoxia and glucose deprivation): about 70%
- effect on noradrenaline induced increase in phospho-inositol turnover ([1]; control conditions): no further effect
- CaCl2 mice In vivo, % [2]: 65 +/− 7%
- average number of cells in the calcium wave ([3]; after ATP desensitization, 10^−8 mol/l, 10 minutes, 4.5 cells before): 6.2 cells
- average number of cells in the calcium wave ([3]; medium without glucose, 10^−8 M, 1.4 cells before): 2.9 cells
- dye transfer, number of cells [4]: 9 cells
- noradrenalin-induced level of PI turnover ([5]; normal athmospheric and nutritional conditions): do not alter
- noradrenalin-induced PI turnover, % of the normal level ([5]; oxygen and glucose deprivation): ~90%
- hypoxia-induced decrease of intercellular communication [6]: completely reversed
